{"source": "ChEMBL document CHEMBL1201862", "about": "“PubChem BioAssay data set” (2004)", "key": {"[1]": {"molecular_target": "Peroxisome proliferator-activated receptor gamma/Nuclear receptor coactivator 1 (Homo sapiens, UniProt P37231)", "experiment": "(§1) TR-FRET dose response biochemical High Throughput Screening assay for agonists of the steroid receptor coactivator 1 (SRC-1) recruitment by the peroxisome proliferator-activated receptor gamma (PPAR gamma): non-selective agonists. [Related pubchem assays (depositor defined):AID1300, AID1808, AID504735, AID631]", "assay_type": "protein assay"}, "[2]": {"molecular_target": "Peroxisome proliferator-activated receptor gamma/Nuclear receptor coactivator 3 (Homo sapiens, UniProt P37231)", "sequence (P37231 whole entry)": "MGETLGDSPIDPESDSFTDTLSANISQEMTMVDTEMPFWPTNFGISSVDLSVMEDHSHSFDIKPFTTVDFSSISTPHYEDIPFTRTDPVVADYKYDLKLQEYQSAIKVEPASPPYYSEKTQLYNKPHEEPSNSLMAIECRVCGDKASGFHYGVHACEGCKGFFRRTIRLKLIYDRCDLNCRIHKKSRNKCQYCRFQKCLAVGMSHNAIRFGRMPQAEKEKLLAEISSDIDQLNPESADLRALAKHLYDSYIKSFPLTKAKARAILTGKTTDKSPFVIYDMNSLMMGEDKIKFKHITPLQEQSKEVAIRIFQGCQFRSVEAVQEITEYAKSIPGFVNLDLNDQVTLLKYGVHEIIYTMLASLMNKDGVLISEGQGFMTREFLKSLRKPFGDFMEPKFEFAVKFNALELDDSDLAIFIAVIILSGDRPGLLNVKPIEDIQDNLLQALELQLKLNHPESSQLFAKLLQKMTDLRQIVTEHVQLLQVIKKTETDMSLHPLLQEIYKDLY", "sequence (Q9Y6Q9 whole entry, further chain)": "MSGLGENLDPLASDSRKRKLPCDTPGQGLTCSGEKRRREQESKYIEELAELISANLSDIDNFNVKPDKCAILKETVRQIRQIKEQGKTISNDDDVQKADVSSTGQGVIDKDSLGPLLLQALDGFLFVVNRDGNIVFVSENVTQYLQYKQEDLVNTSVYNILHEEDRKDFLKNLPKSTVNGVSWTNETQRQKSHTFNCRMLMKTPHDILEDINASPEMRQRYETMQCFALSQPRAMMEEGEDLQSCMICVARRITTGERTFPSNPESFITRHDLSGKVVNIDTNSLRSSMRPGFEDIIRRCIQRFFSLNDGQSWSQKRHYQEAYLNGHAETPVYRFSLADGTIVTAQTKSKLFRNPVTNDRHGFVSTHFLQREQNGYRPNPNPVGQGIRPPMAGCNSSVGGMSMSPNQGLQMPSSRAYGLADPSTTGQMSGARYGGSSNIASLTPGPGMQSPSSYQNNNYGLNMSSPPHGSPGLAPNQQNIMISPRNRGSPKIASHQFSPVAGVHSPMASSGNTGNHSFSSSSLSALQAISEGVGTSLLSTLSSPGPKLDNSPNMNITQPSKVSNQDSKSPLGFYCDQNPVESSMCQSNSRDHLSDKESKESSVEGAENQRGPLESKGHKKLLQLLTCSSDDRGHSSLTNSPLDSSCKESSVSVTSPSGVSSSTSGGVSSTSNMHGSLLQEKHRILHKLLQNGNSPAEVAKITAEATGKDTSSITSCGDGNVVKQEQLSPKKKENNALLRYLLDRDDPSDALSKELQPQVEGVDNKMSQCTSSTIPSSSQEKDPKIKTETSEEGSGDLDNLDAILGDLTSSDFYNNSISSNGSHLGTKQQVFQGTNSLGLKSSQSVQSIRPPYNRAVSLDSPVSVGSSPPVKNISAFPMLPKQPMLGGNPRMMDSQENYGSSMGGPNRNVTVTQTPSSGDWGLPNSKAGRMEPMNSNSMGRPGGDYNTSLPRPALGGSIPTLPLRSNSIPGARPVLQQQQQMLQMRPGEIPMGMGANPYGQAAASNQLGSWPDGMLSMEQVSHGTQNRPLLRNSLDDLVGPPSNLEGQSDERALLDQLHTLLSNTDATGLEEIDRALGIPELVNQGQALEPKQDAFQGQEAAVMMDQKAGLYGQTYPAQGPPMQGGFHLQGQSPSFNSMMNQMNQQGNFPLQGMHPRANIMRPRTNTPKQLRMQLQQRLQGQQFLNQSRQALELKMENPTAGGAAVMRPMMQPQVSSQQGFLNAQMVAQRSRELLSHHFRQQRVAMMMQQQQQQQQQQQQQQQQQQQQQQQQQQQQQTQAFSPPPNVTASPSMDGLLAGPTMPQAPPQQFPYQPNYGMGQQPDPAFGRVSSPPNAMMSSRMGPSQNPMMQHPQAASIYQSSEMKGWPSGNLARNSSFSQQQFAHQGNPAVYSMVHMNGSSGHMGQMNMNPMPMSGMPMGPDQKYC", "experiment": "as §1, with “3 (SRC-3)” for “1 (SRC-1)”, “assays: 1301 (Confirmation screen.), 1048 (Primary screen.)]” for “assays (depositor defined):AID1300, AID1808, AID504735, AID631]”", "assay_type": "functional"}, "[3]": {"molecular_target": "Peroxisome proliferator-activated receptor gamma/Nuclear receptor coactivator 2 (Homo sapiens, UniProt P37231)", "sequence (P37231 whole entry)": "as the sequence (P37231 whole entry) above", "sequence (Q15596 whole entry, further chain)": "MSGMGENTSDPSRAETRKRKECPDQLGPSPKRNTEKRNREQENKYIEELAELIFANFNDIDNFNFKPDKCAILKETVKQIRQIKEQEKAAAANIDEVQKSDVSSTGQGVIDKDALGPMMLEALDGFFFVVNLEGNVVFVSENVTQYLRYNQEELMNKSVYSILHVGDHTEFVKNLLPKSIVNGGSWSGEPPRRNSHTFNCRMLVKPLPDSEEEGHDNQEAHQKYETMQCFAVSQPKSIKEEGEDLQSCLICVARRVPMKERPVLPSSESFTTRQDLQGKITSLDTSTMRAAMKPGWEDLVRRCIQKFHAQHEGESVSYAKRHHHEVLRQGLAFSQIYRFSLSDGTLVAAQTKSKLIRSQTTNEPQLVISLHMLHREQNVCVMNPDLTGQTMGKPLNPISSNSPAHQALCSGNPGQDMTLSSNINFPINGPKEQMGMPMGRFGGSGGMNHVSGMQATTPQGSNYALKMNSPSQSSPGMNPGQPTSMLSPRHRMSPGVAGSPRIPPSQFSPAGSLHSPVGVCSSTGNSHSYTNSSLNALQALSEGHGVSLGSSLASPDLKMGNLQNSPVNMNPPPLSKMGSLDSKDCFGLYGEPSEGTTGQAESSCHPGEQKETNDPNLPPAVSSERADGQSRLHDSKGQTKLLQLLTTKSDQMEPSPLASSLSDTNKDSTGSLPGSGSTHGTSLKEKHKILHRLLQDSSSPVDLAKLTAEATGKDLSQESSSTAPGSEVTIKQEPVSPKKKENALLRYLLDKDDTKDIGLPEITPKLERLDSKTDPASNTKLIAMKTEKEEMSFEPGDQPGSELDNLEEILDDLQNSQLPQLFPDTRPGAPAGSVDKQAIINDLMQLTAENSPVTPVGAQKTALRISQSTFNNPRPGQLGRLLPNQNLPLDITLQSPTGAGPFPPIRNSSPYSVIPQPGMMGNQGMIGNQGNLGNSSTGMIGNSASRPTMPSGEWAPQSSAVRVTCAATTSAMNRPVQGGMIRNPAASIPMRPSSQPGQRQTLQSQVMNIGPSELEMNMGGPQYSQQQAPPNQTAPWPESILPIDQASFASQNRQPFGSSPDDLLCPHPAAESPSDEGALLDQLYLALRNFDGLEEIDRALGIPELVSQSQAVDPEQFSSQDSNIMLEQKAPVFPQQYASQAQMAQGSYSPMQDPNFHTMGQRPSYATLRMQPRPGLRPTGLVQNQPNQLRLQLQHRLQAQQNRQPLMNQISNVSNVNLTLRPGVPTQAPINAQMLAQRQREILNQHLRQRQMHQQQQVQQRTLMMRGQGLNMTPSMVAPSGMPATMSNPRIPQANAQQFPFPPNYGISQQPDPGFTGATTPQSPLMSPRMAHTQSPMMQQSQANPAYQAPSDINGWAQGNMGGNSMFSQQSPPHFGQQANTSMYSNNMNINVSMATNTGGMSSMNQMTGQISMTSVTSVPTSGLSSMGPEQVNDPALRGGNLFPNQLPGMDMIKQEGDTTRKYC", "experiment": "TR-FRET dose response biochemical High Throughput Screening assay for agonists of the steroid receptor coactivator 2 (SRC-2) recruitment by the peroxisome proliferator-activated receptor gamma (PPAR gamma): non-selective agonists. [Related pubchem assays: 1297, 1032 ]", "assay_type": "functional"}, "Trypsin": {"molecular_target": "Trypsin (Sus scrofa, UniProt P00761)", "experiment": "porcine trypsin inhibitors, dose response, selectivity assay for Rce1 protease inhibitor project, biochemical, quenched peptide fluorescence, cherry-pick (AID 488789)"}, "[4]": {"experiment": "cytotoxicity in HEK-293T cells, dose response, cytotoxicity control for BCR NF-kB inhibitor project, luminescence, B-cell screen hits (AID 489021)", "assay_type": "functional, cell-based"}, "Cytochrome P450 2C19": {"molecular_target": "Cytochrome P450 2C19 (Homo sapiens, UniProt P33261)", "sequence (P33261 whole entry)": "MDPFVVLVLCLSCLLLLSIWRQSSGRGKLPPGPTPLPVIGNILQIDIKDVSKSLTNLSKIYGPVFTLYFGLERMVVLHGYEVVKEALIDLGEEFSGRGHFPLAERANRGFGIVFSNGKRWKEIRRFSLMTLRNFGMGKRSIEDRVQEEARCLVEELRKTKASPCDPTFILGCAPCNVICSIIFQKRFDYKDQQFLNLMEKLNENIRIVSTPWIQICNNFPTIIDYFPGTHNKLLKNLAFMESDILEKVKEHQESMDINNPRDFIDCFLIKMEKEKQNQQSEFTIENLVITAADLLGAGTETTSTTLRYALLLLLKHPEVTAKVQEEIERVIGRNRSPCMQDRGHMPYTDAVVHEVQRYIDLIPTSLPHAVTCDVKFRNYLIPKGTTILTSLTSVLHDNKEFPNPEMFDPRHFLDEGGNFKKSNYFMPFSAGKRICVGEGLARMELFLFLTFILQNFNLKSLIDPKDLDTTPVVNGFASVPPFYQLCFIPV", "experiment": "Cytochrome panel assay with activity outcomes. Panel member name: p450-cyp2c19 Compounds with AC50 equal or less than 10 uM are considered active", "assay_type": "functional"}, "Cytochrome P450 2C9": {"molecular_target": "Cytochrome P450 2C9 (Homo sapiens, UniProt P11712)", "sequence (P11712 whole entry)": "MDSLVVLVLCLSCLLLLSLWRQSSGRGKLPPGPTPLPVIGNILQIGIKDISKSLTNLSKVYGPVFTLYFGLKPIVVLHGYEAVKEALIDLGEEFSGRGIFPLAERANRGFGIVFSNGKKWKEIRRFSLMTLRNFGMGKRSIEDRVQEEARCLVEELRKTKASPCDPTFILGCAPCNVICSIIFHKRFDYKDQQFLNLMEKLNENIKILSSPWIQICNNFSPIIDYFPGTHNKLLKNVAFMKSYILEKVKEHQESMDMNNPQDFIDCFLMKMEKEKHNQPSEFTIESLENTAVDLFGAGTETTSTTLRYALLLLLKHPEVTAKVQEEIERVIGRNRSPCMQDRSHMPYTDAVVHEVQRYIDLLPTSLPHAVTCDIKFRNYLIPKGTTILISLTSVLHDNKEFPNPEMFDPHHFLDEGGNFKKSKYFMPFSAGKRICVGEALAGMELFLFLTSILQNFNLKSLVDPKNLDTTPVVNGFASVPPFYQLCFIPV"}, "[5]": {"experiment": "growth suppression of PTEN-null colon cells, dose response, cell-based, HCT116 PTEN knockout (AID 1047)", "assay_type": "functional"}, "[6]": {"experiment": "growth suppression of beta-catenin-knockout colon cells, dose response, cell-based, HCT116, human colon tumor (AID 1045)", "assay_type": "functional"}, "[7]": {"experiment": "Luminescence Cell-Based Dose Retest to Confirm Inhibitors of Cancer Stem Cells. [Related pubchem assays (depositor defined):AID2717, AID2721]", "assay_type": "functional", "settings": "Homo sapiens"}, "X-box-binding protein 1": {"molecular_target": "T1, X-box-binding protein 1 (Homo sapiens, UniProt P17861)", "T1 sequence (P17861 whole entry)": "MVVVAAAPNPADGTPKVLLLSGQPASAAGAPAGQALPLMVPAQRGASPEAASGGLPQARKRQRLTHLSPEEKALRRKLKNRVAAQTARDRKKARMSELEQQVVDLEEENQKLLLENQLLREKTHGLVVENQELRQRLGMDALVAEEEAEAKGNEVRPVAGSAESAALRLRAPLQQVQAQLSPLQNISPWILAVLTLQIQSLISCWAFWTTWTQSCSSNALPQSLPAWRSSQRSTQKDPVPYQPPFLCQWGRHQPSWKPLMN", "assay_type": "functional, Cricetulus griseus"}, "INS1": {"test_system": "INS1", "experiment": "beta cell apoptosis inhibitors, cytokine rescue, dose response, luminescence, retest (AID 449756)", "assay_type": "functional, cell-based", "settings": "Rattus norvegicus"}, "HEK293": {"test_system": "HEK293", "experiment": "Fluorescence-based counterscreen for potentiators or agonists of NPY-Y2: cell-based high-throughput dose response assay to identify inhibitors of cyclic nucleotide gated ion channel (CNGC) activity. In this assay, the parental HEK293 cell line transfected with a cyclic-nucleotide gated ion channel (CNGC)-based cAMP sensor is used to measure inhibition of isoproterenol-induced CNGC activity by test compound.", "assay_type": "functional", "settings": "Homo sapiens"}, "[8]": {"test_system": "Streptococcus sp. 'group A'", "experiment": "growth inhibition of control SK(-) GAS strain, dose response, counter-screen for streptokinase expression inhibitor project, luminescence, kanamycin, BacTiterGlo, confirmation (AID 1900)", "assay_type": "functional, organism-based"}, "[9]": {"molecular_target": "T2, Neuropeptide Y receptor type 2 (Homo sapiens, UniProt P49146)", "T2 sequence (P49146 whole entry)": "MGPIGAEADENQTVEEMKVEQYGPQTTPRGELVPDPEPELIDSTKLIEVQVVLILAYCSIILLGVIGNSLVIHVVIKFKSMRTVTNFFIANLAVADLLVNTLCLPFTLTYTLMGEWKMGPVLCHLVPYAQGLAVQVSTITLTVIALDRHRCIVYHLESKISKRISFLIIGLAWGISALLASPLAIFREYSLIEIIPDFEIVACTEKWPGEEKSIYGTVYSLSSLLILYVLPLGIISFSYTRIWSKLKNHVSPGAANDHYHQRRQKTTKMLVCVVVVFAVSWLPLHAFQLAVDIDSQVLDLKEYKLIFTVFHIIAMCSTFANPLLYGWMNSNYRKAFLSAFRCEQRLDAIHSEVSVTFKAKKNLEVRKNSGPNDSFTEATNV", "experiment": "Fluorescence-based cell-based high-throughput dose response assay for agonists of NPY-Y2. [Related pubchem assays: 1703 (Screening assay (CNGC inhibitors).), 1359 (Screening assay (NPY-Y2 potentiators or agonists).), 1304 (Screening assay (NPY-Y1 potentiators or agonists).), 1710 (Screening assay (NPY-Y2 agonists).), 1791 (Summary AID.)]", "assay_type": "functional"}, "Streptokinase A": {"molecular_target": "T3, Streptokinase A (Streptococcus pyogenes serotype M1, UniProt P10520)", "T3 sequence (P10520 whole entry)": "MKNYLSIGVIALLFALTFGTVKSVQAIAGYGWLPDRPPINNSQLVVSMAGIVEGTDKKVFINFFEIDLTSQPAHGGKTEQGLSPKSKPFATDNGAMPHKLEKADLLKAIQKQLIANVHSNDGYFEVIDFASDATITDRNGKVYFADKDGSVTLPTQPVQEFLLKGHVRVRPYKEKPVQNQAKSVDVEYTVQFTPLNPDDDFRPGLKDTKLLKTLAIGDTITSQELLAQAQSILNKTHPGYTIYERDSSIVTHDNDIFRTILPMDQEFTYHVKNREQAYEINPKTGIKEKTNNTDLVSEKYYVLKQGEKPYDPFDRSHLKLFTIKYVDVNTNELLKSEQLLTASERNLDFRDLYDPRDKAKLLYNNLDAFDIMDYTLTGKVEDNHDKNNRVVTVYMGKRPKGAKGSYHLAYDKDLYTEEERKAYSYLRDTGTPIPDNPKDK", "experiment": "S. pyogenes streptokinase expression inhibitors, potency, dose response, plasminogen activation absorbance, OD405 (AID 1914)", "assay_type": "functional, Streptococcus pyogenes M1 GAS"}, "[10]": {"molecular_target": "T4, Neuropeptide Y receptor type 1 (Homo sapiens, UniProt P25929)", "T4 sequence (P25929 whole entry)": "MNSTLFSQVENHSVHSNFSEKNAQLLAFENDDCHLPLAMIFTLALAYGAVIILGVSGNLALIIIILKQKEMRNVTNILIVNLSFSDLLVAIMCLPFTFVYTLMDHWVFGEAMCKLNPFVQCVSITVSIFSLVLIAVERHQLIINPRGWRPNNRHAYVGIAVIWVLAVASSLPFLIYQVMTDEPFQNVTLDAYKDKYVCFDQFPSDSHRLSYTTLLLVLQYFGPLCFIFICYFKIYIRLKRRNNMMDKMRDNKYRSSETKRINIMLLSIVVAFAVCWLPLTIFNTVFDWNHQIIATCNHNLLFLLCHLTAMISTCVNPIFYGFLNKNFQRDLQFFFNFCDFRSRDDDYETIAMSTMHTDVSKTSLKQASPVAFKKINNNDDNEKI", "experiment": "Fluorescence-based counterscreen for agonists of NPY-Y2: cell-based high-throughput dose response assay for agonists of NPY-Y1.", "assay_type": "functional"}, "Streptococcus": {"test_system": "Streptococcus", "experiment": "Group A Streptococcus viability loss, dose response, counter-screen for streptokinase expression inhibitor project, luminescence, BacTiterGlo (AID 1915)", "assay_type": "functional, organism-based"}}, "note": "Calls of active or inactive are those of the source.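 Wherever Absolute IC50 (XBP1) is given: confirmatory dose-response counter-screen serving a CHOP assay.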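 Wherever IC50 is given: HEK-293T cells carrying an NF-kB luciferase reporter; cells exposed to compound for about 14 hours before viability readout.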", "data": [{"smiles": "S=c1[nH]nc(-c2ccccc2)o1", "values": [{"measurement": "EC50", "setting": "[1]", "value": "16.2 µM (inactive)"}, {"measurement": "EC50", "setting": "[2]", "value": "> 79.4 µM (not active)"}, {"measurement": "EC50", "setting": "[3]", "value": "8.1 µM (active)"}, {"measurement": "AC50", "setting": "Trypsin", "value": "13.3 µM (active)"}]}, {"smiles": "Cc1ccc(-c2nn3c(C)nnc3c3ccccc23)cc1S(=O)(=O)NCCN1CCOCC1", "values": [{"measurement": "IC50", "setting": "[4]", "value": "> 80 µM (inactive)"}, {"measurement": "AC50", "setting": "Cytochrome P450 2C19", "value": "inconclusive"}, {"measurement": "AC50", "setting": "Cytochrome P450 2C9", "value": "20 µM (inconclusive)"}]}, {"smiles": "Cc1ccc(S(=O)(=O)Nc2ccc(NC(=O)Nc3cccc(C(F)(F)F)c3)cc2)cc1", "values": [{"measurement": "EC50", "setting": "[5]", "value": "9.49 µM (active)"}, {"measurement": "EC50", "setting": "[6]", "value": "12.9 µM (active)"}, {"measurement": "AC50", "setting": "[7]", "value": "1.36 µM (active)"}, {"measurement": "Absolute IC50 (XBP1)", "setting": "X-box-binding protein 1", "value": 10, "unit": "µM"}, {"measurement": "AC50", "setting": "INS1", "value": "8.16 µM (active)"}]}, {"smiles": "COCCCN1C(=O)/C(=C\\c2nc(C#N)c(Nc3ccc(C)cc3)o2)SC1=S", "values": [{"measurement": "EC50", "setting": "HEK293", "value": "> 35.4 µM (not active)"}, {"measurement": "EC50", "setting": "[8]", "value": "108 µM (active)"}, {"measurement": "EC50", "setting": "[9]", "value": "> 35.4 µM (not active)"}, {"measurement": "EC50", "setting": "Streptokinase A", "value": "> 150 µM (not active)"}, {"measurement": "EC50", "setting": "[10]", "value": "> 35.4 µM (not active)"}, {"measurement": "EC50", "setting": "Streptococcus", "value": "> 150 µM (not active)"}]}, {"smiles": "CCn1c(=O)c2cc(C(=O)NCc3cccs3)sc2c2ccccc21", "values": [{"measurement": "IC50", "setting": "[4]", "value": "> 80 µM (inactive)"}]}, {"smiles": "COc1ccc(C(=O)Nc2ccc(OC)c([N+](=O)[O-])c2)cc1Br", "values": [{"measurement": "IC50", "setting": "[4]", "value": "> 80 µM (inactive)"}]}]}
